The source of these data is PMC8386742, “Discovery of N-aryl sulphonamide-quinazoline derivatives as anti-gastric cancer agents in vitro and in vivo via activating the Hippo signalling pathway” (Journal of Enzyme Inhibition and Medicinal Chemistry, 2021).

The test system of assay [1] is MGC-803 cells. The assay can be described thus: MTT antiproliferative assay, MGC-803 cells. Particulars: exposure for 48 h. Format: cell-based, human. On the procedure: The in vitro antiproliferative activities of new target compounds 6a–6g, 9a–9i, 10a–10j, 11a–11j, and 14a–14d were evaluated against four human cancer cell lines (MGC-803, PC-3, HCT-116, and MCF-7) using MTT assay and 5-FU as a positive drug. The following Tables 1–[4] depicted the results of in vitro antiproliferative activity.
(§1) Cell lines used were cultured in humidified incubator in a humidified atmosphere of 5% CO2 and 95% air. The RPMI-1640 medium was supplemented with 10% foetal bovine serum, penicillin (100 U/ml) and streptomycin (0.1 mg/ml).
(§2) Cell lines were seeded into 96-well plates and incubated for 24 h. Then cells were treated with different concentrations of compounds. And after another 48 h, MTT reagent (20 μL per well) was added to each well and then incubated at 37 °C for 4 h. After the suspension was discarded, formazan was then dissolved with DMSO. Absorbencies of formazan solution were measured at 490 nm. The IC50 values of tested compounds were calculated by SPSS version 17.0.

Assay [2] has as its system MGC-803 xenograft tumour. The assay is described as follows: MGC-803 xenograft model. The class given is in vivo, nude mice. As for the experimental part:
When the tumour volume reached 100 mm^3, vehicle control, compound 9i, and 5-FU were administered by daily intraperitoneal injection for 21 consecutive days. During the treatment, tumour volume and body weight of nude mice were measured every 3 days from the beginning of treatment. […] Tumour weight was measured after the execution of animals, the inhibition rate of the compound 9i treated group was over 60% than the vehicle group (Figures 7(B,C)). Tunnel staining was used for cell apoptosis detection, as shown in Figure 7(D), compound 9i increased the level of cell apoptosis. […] Next, the levels of YAP, Bcl-2, c-Myc, Ki67, and cleaved PARP in tissues were detected using immunochemistry to validate the results. […] The data indicated compound 9i inhibited YAP to inhibit the tumour in vivo.
A human gastric cancer subcutaneous transplantation tumour model was established with MGC-803 cells. After the tumour volume reaches 100 mm3 the MGC-803 bearing mice were randomised into 3 groups and intraperitoneal injection with normal saline or drugs continuously for 21 days. Tumour volume was measured every 3 days (Length × Width2/2). Mice were executed after treatment. 500 μL blood samples was collected each mouse, samples were then centrifuged at 2000 g for 10 min for biochemistry analysis. Tumour and organs tissues were harvested for H&E staining or immunochemistry detection. The experiments in the study were performed comply with the protocols approved by the Institutional Animal Care and Use Committee, Zhengzhou University.

The subject of assay [3] is tubulin. The assay is described as follows: Tubulin polymerization, extracellular. Conditions: 3 μmol/L. The class given is biochemical. The text has this: In this work, compound 9i was design and synthesized by SAR study of our reported tertiary amide derivatives compound 1 and compound 2. Therefore, we tested the influence of compound 9i on tubulin polymerization and AKT/mTOR and ERK […]
influence on tubulin polymerization and P38, ERK, AKT, mTOR and Wnt pathways . […]
pathway. Therefore, we here reported N-sulfonamide-quinazoline derivatives as novel anti-gastric cancer agents via activating the Hippo signaling pathway in vitro and in […]
Supporting Figure S1. A. Activity of compound 9i on tubulin polymerization . Tubulin polymerization extracellular, concentrations of Paclitaxel, Colchicine and 9i were 3 μmol/L; Activity of compound 9i on P38, ERK, AKT, mTOR and Wnt pathways, cells were incubated with […]
(1 picture or pasted object on this page, not shown here)

Assay [4] deals with SGC-7901 cells. The assay is described as follows: MTT antiproliferative assay, SGC-7901 gastric cancer cells. Format: cell-based. Conditions: Homo sapiens, SGC-7901, exposure for 48 h. On the procedure: Furthermore, MGC-803 cells were more sensitive to the compounds than HCT-116, PC-3 cells MCF-7 cells. Moreover, we chose two other common gastric cancer cell lines (HGC-27 and SGC-7901) and another two normal cells GES-1 and HUEVC cells to examine for the inhibitory activity of compound 9i.
as §1, §2

For the molecule `COc1ccc(S(=O)(=O)N(Cc2nc(C)c3ccccc3n2)c2cc(OC)c(OC)c(OC)c2)cc1` [Compound 9i, 4-Methoxy-N-((4-methylquinazolin-2-yl)methyl)-N-(3,4,5-trimethoxyphenyl) benzene-sulfonamide], the IC50 in assay [1] (Homo sapiens, MGC-803, 48 h) was determined as 0.36 ± 0.02 µM; in assay [1] it was 0.363 µM; in assay [4], 0.376 µM. The “tumour growth (tumour volume)” value in assay [2] (daily intraperitoneal injection for 21 days) is on record as “inhibited tumour growth in vivo”. Besides, the “tumour weight inhibition rate” value in assay [2] (daily intraperitoneal injection for 21 days, versus vehicle group) was “over 60%”. Moreover, the “expression of YAP, Bcl-2 and c-Myc in tumour tissues” value in assay [2] (tumour tissues after 21 days treatment) is given as “significantly down-regulated”. In addition, in assay [3], the “influence on tubulin polymerization” value is on record as “no strong influence”.
